From BindingDB's records for doi:10.1093/toxsci/kfq269 (Amgen, 2010) come the findings set out here.

A value given as a limit tells only on which side of the number the result lay.

One may read the IC50 as the concentration at which inhibition is half-maximal.

The experiment addresses Bile salt export pump (Homo sapiens, UniProt O95342). Kind of experiment: ChEBML_1661982. As for the experimental part:
Inhibition of human BSEP expressed in fall armyworm sf9 cell plasma membrane vesicles assessed as reduction in vesicle-associated [3H]-taurocholate transport preincubated for 10 mins prior to ATP addition measured after 15 mins in presence of [3H]-taurocholate by topcount based membrane vesicle transport assay

Take `O=C1OC2(c3ccc(O)cc3Oc3cc(O)ccc32)c2ccccc21`: the IC50 is above 135 µM.
